Test results published in PubChem BioAssay AID1259411 (Chemical Carcinogenesis Research Information System (CCRIS), 2018).
Active and inactive are the calls of the source. No rule for the calls is given here.

Test system: rodent carcinogenicity bioassays, tumor incidence
Test: CCRIS carcinogenicity studies
Settings: Dose: 0, Dose: 0
How it was run: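 NCI-built, expert-reviewed records of carcinogenicity and related test outcomes (mutagenicity, tumor promotion/inhibition) compiled from published and report sources, historical span 1985-2011, not updated.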

Measured: carcinogen call

FC(F)(Cl)Cl
inactive: Species: MOUSE, Strain/Sex: SWISS/FEMALE, Route: INHALATION, 1000, 5000 PPM 4 HR/D 5 D/WK FOR 78 WK (STUDY DURATION: LIFETIME), 1000, 5000 PPM 4 HR/D 5 D/WK FOR 78 WK (STUDY DURATION: LIFETIME) inactive; negative | Species: MOUSE, Strain/Sex: SWISS/MALE, Route: INHALATION, 1000, 5000 PPM 4 HR/D 5 D/WK FOR 78 WK (STUDY DURATION: LIFETIME), 1000, 5000 PPM 4 HR/D 5 D/WK FOR 78 WK (STUDY DURATION: LIFETIME) inactive; negative | Species: RAT, Strain/Sex: SPRAGUE-DAWLEY/FEMALE, Route: INHALATION, 1000, 5000 PPM 4 HR/D 5 D/WK FOR 104 WK (STUDY DURATION: LIFETIME), 1000, 5000 PPM 4 HR/D 5 D/WK FOR 104 WK (STUDY DURATION: LIFETIME) inactive; negative | Species: RAT, Strain/Sex: SPRAGUE-DAWLEY/FEMALE, Route: INHALATION, 1000, 5000 PPM IN AIR 4 HR/D 5 D/WK FOR 104 WK (STUDY DURATION: LIFETIME), 1000, 5000 PPM IN AIR 4 HR/D 5 D/WK FOR 104 WK (STUDY DURATION: LIFETIME), Tumor Site: Type of Lesion: [BRAIN WAS ONLY SITE EVALUATED] inactive; negative | Species: RAT, Strain/Sex: SPRAGUE-DAWLEY/MALE, Route: INHALATION, 1000, 5000 PPM 4 HR/D 5 D/WK FOR 104 WK (STUDY DURATION: LIFETIME), 1000, 5000 PPM 4 HR/D 5 D/WK FOR 104 WK (STUDY DURATION: LIFETIME) inactive; negative | Species: RAT, Strain/Sex: SPRAGUE-DAWLEY/MALE, Route: INHALATION, 1000, 5000 PPM IN AIR 4 HR/D 5 D/WK FOR 104 WK (STUDY DURATION: LIFETIME), 1000, 5000 PPM IN AIR 4 HR/D 5 D/WK FOR 104 WK (STUDY DURATION: LIFETIME), Tumor Site: Type of Lesion: [BRAIN WAS ONLY SITE EVALUATED] inactive; negative

C=CC(=O)OC(C)COCC(C)OCC(C)OC(=O)C=C (centres undefined)
active: Species: MOUSE, Strain/Sex: TG.AC/FEMALE, Route: DERMAL, 1, 5, 10 UMOL IN 200 µL ACETONE 3/WK FOR 20 WK (STUDY DURATION: 20 WK), 1, 5, 10 UMOL IN 200 µL ACETONE 3/WK FOR 20 WK (STUDY DURATION: 20 WK), Tumor Site: Type of Lesion: SKIN: PAPILLOMA active; positive

C[C@@]12CCC[C@H]1[C@@H]1CCc3cc(O)ccc3[C@H]1CC2
inactive: Species: HAMSTER, Strain/Sex: SYRIAN/MALE, Route: SUBCUTANEOUS IMPLANT, 20 MG IN PELLETS IMPLANTED EVERY 2.5 MO FOR 9 MO (STUDY DURATION: 9 MO) inactive; negative

Clc1c2ccccc2cc2c1ccc1ccccc12
active: Species: MOUSE, Strain/Sex: B6C3F1/MALE, Route: INTRAPERITONEAL, 1600 NMOL (TOTAL DOSE) ADMINISTERED IN DOSES OF 1/7 WITHIN 24 HR OF BIRTH, 2/7 AT 8 DAYS OF AGE AND 4/7 AT 15 DAYS OF, Tumor Site: Type of Lesion: LIVER: ADENOMA, CARCINOMA active; positive

CC(Cl)(Cl)Cl
inactive: Species: MOUSE, Strain/Sex: B6C3F1/FEMALE, Route: INHALATION, 150, 500, 1500 PPM IN AIR 6 HR/D 5 D/WK FOR 24 MO (STUDY DURATION: 24 MO), 150, 500, 1500 PPM IN AIR 6 HR/D 5 D/WK FOR 24 MO (STUDY DURATION: 24 MO) inactive; negative | Species: MOUSE, Strain/Sex: B6C3F1/MALE, Route: INHALATION, 150, 500, 1500 PPM IN AIR 6 HR/D 5 D/WK FOR 24 MO (STUDY DURATION: 24 MO), 150, 500, 1500 PPM IN AIR 6 HR/D 5 D/WK FOR 24 MO (STUDY DURATION: 24 MO) inactive; negative | Species: RAT, Strain/Sex: F344/FEMALE, Route: INHALATION, 150, 500, 1500 PPM IN AIR 6 HR/D 5 D/WK FOR 24 MO (STUDY DURATION: 24 MO), 150, 500, 1500 PPM IN AIR 6 HR/D 5 D/WK FOR 24 MO (STUDY DURATION: 24 MO) inactive; negative | Species: RAT, Strain/Sex: F344/MALE, Route: INHALATION, 150, 500, 1500 PPM IN AIR 6 HR/D 5 D/WK FOR 24 MO (STUDY DURATION: 24 MO), 150, 500, 1500 PPM IN AIR 6 HR/D 5 D/WK FOR 24 MO (STUDY DURATION: 24 MO) inactive; negative

ClCOCc1ccc(COCCl)cc1
active: Species: MOUSE, Strain/Sex: ICR/HA SWISS/FEMALE, Route: DERMAL, 0.3 MG IN 0.1 ML CYCLOHEXANE 3/WK FOR 502 D (STUDY DURATION: 570 D), Tumor Site: Type of Lesion: SKIN: PAPILLOMA, SKIN: CARCINOMA active; positive | Species: MOUSE, Strain/Sex: ICR/HA SWISS/FEMALE, Route: SUBCUTANEOUS, 0.3 MG IN 0.05 ML TRICAPRYLIN 1/WK FOR 569 D (STUDY DURATION: 570 D), Tumor Site: Type of Lesion: INJECTION SITE: SARCOMA active; positive

O=[N+]([O-])c1ccc2ccc3ccc([N+](=O)[O-])c4ccc1c2c34
active: Species: RAT, Strain/Sex: F344/MALE, Route: SUBCUTANEOUS, 0.002, 0.02 MG 2/WK FOR 10 WK (STUDY DURATION: 320 D), 0.002, 0.02 MG 2/WK FOR 10 WK (STUDY DURATION: 320 D), Tumor Site: Type of Lesion: INJECTION SITE: SARCOMA active; positive | Species: RAT, Strain/Sex: STRAIN CD/FEMALE, Route: INTRAGASTRIC, 10 UMOL IN DMSO 3/WK FOR 4 WK (TOTAL DOSE: 16 UMOL/RAT) (STUDY DURATION: 78 WK), Tumor Site: Type of Lesion: ADRENAL GLAND: PHEOCHROMOCYTOMA, CORTICAL ADENOMA, PITUITARY GLAND: CARCINOMA, LIVER: HYPERPLASTIC NODULES, Tumor Site: Type of Lesion: ADRENAL GLAND: PHEOCHROMOCYTOMA, CORTICAL ADENOMA, PITUITARY GLAND: CARCINOMA, LIVER: HYPERPLASTIC NODULES active; positive | Species: RAT, Strain/Sex: STRAIN CD/FEMALE, Route: INTRAGASTRIC, 10 UMOL IN DMSO 3/WK FOR 4 WK (TOTAL DOSE: 16 UMOL/RAT) (STUDY DURATION: 78 WK), Tumor Site: Type of Lesion: MAMMARY GLAND: ADENOCARCINOMA, FIBROADENOMA active; positive | Species: RAT, Strain/Sex: STRAIN CD/FEMALE, Route: INTRAPERITONEAL, 10 UMOL IN DMSO 3/WK FOR 4 WK (TOTAL DOSE: 16 UMOL/RAT) (STUDY DURATION: 78 WK), Tumor Site: Type of Lesion: HEMATOPOIETIC SYSTEM: HISTIOCYTOMA, LEUKEMIA active; positive | Species: RAT, Strain/Sex: STRAIN CD/FEMALE, Route: INTRAPERITONEAL, 10 UMOL IN DMSO 3/WK FOR 4 WK (TOTAL DOSE: 16 UMOL/RAT) (STUDY DURATION: 78 WK), Tumor Site: Type of Lesion: MAMMARY GLAND: ADENOCARCINOMA active; positive | Species: RAT, Strain/Sex: STRAIN-CD/FEMALE, Route: SUBCUTANEOUS, 6.3 UMOL (TOTAL DOSE) ADMINISTERED OVER 8 WK BEGINNING ON DAY OF BIRTH (STUDY DURATION: 67 WK), Tumor Site: Type of Lesion: INTEGUMENTARY SYSTEM: MALIGNANT FIBROUS HISTIOCYTOMA, HEMATOPOIETIC SYSTEM: LEUKEMIA active; positive

C=CCO
inactive: Species: HAMSTER, Strain/Sex: SYRIAN/MALE, Route: GAVAGE, 2 MG/WK FOR 60 WK (STUDY DURATION: 92 WK) inactive; negative | Species: RAT, Strain/Sex: F344/FEMALE, Route: ORAL, 300 MG/L IN DRINKING WATER 5 D/WK FOR 100 WK (STUDY DURATION: 130 WK) inactive; negative | Species: RAT, Strain/Sex: F344/MALE, Route: ORAL, 300 MG/L IN DRINKING WATER 5 D/WK FOR 100 WK (STUDY DURATION: 130 WK) inactive; negative
